Assay results reported in PMC4522710, “A putative ATPase mediates RNA transcription and capping in a dsRNA virus” (eLife, 2015).

Target: T1, CPV turret protein (TP) (Bombyx mori cypovirus 1, UniProt Q914N6)
T1 construct: native full-length protein in intact virions purified from polyhedra; GTase, bridge, MT-1 and MT-2 domains; pentameric turret
Assay: cryoEM structure of virion complex
Format: binding
Conditions: 10 mM MgCl2, pH 8.0, 31 °C

| Compound | cryoEM structure of virion complex (2 mM GTP, GTase site (all four structures), also putative ATPase site with SAM without ATP (3JB2)) | cryoEM structure of virion complex (1 mM SAM, MT-2 site (SAM alone, 3JB1), MT-1 and MT-2 sites with ATP and/or GTP present (3JAY, 3JB2, 3JB3)) |
| --- | --- | --- |
| Nc1nc2c(ncn2[C@@H]2O[C@H](COP(=O)(O)OP(=O)(O)OP(=O)(O)O)[C@@H](O)[C@H]2O)c(=O)[nH]1 [GTP] | In G-CPV, one GTP binds to the GTase site of GTase domain. | – |
| C[S+](CC[C@H](N)C(=O)O)C[C@H]1O[C@@H](n2cnc3c(N)ncnc32)[C@H](O)[C@@H]1O (some centres unmarked) [SAM] | – | In S-CPV, one SAM binds to the MT-2 domain of each TP. |
